# Data published in article PMC5680195, “Structural basis of small molecule ATPase inhibition of a human mitotic kinesin motor protein” (Scientific Reports, 2017).
# Legend:
# KIFC3 = target: T1, KIFC3 (Homo sapiens, UniProt Q9BVG8); assay: X-ray crystal structure, […] A; settings: Mg2+; nucleotide-binding cleft; no added nucleotide stated; pH 7.5; 18 °C
# T1 construct: motor domain K443-L770, p28a-LIC (EF442785 is printed beside the vector), E. coli BL21-CodonPlus (DE3)-RIL, HisTrap purified
# T1 sequence (Q9BVG8 443-770): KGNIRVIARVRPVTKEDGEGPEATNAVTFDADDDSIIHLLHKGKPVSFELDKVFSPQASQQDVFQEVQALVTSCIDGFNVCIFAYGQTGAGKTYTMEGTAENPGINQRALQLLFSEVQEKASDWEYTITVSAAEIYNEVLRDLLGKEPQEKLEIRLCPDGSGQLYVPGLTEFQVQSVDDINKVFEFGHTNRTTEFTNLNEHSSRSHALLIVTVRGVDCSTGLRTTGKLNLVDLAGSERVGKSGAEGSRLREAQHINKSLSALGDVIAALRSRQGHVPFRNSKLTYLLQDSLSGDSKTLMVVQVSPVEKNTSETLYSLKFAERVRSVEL
# KIFC1 = target: T2, KIFC1 (Homo sapiens, UniProt Q9BW19, T368P); assay: X-ray crystal structure, […] A; settings: Mg2+; nucleotide-binding cleft; 5-fold molar excess Mg-ADP added; pH 7.5; 18 °C
# T2 construct: motor domain N307-C663 with PCR-induced T368P (loop L2, disordered), pFBOH-LIC, Hi-Five insect cells, Ni-NTA purified
# T2 sequence (Q9BW19 307-663 T368P): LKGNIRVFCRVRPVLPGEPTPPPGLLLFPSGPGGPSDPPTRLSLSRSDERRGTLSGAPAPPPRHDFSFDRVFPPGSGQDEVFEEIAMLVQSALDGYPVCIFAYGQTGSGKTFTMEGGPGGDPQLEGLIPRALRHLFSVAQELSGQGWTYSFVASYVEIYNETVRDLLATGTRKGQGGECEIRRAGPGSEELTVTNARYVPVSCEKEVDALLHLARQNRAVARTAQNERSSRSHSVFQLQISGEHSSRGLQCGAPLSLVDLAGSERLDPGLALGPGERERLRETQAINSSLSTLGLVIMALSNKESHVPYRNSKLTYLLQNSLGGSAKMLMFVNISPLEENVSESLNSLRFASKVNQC
structure (smiles),measurement,setting,value
Nc1ncnc2c1ncn2[C@@H]1O[C@H](COP(=O)(O)OP(=O)(O)O)[C@@H](O)[C@H]1O [ADP],"X-ray crystal structure, 1.85 A",KIFC3,Both proteins were crystallized bound to Mg-ADP and are reported here for the first time
same,"X-ray crystal structure, 2.25 A",KIFC1,Both proteins were crystallized bound to Mg-ADP and are reported here for the first time
